Results reported in publication PMC6121469 (International Journal of Molecular Sciences, 2018).

Columns and labels:
[1] = target: T1, TASK-3 WT channel (Cavia porcellus, UniProt Q9JL58); details: +80 mV, HEK-293 cells
[2] = target: TASK-3/2loop2/Y99A/Y205A (Cavia porcellus, UniProt Q9JL58, Y205A, form not given); details: HEK-293 cells; similar to TASK-3 WT
[3] = target: Kv2.1 channel (Rattus norvegicus, UniProt P15387); assay: cell-based; details: HEK293, read-out: inhibition of Kv2.1 currents
[4] = target: TASK-3/2loop2 (cap-less TASK-3 channel) (Cavia porcellus, UniProt Q9JL58); details: symmetrical K+ conditions, HEK-293 cells
[5] = target: TASK-3/2loop2/Y205A (Cavia porcellus, UniProt Q9JL58, Y205A, form not given); details: HEK-293 cells
[6] = target: T1, TASK-3 WT channel; assay: cell-based
[7] = target: TASK-3/2loop2/Y99A (Cavia porcellus, UniProt Q9JL58); details: HEK-293 cells
Sequence of TASK-3/2loop2/Y99A (Q9JL58 with tags, fused parts or gaps): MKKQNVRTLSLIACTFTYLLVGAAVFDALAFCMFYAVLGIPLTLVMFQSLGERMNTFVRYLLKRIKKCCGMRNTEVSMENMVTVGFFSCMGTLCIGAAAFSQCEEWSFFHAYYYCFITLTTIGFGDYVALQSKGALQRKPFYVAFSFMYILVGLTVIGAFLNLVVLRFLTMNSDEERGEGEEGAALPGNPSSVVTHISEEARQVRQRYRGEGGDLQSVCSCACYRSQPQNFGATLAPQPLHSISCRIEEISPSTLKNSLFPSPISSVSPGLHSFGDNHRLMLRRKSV

Sequence of TASK-3/2loop2 (cap-less TASK-3 channel) (Q9JL58 with tags, fused parts or gaps): as above
Sequence of TASK-3/2loop2/Y205A (Q9JL58 with tags, fused parts or gaps Y205A, form open): as the sequence (Q9JL58 with tags, fused parts or gaps) above, with Y127A counted along it
T1 sequence (Q9JL58 whole entry): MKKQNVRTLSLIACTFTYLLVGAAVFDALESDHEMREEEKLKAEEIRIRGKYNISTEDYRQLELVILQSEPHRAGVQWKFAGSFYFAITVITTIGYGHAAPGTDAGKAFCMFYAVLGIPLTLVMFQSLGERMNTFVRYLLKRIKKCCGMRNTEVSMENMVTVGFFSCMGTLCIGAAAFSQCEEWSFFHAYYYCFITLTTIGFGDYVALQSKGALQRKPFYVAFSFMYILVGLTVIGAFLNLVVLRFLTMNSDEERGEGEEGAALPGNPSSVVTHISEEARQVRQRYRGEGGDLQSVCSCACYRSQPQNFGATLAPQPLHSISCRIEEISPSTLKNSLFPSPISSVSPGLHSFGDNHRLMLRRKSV
Sequence of TASK-3/2loop2/Y99A/Y205A (Q9JL58 with tags, fused parts or gaps Y205A, form open): as the sequence (Q9JL58 with tags, fused parts or gaps) above, with Y127A counted along it
Sequence of Kv2.1 channel (P15387 whole entry): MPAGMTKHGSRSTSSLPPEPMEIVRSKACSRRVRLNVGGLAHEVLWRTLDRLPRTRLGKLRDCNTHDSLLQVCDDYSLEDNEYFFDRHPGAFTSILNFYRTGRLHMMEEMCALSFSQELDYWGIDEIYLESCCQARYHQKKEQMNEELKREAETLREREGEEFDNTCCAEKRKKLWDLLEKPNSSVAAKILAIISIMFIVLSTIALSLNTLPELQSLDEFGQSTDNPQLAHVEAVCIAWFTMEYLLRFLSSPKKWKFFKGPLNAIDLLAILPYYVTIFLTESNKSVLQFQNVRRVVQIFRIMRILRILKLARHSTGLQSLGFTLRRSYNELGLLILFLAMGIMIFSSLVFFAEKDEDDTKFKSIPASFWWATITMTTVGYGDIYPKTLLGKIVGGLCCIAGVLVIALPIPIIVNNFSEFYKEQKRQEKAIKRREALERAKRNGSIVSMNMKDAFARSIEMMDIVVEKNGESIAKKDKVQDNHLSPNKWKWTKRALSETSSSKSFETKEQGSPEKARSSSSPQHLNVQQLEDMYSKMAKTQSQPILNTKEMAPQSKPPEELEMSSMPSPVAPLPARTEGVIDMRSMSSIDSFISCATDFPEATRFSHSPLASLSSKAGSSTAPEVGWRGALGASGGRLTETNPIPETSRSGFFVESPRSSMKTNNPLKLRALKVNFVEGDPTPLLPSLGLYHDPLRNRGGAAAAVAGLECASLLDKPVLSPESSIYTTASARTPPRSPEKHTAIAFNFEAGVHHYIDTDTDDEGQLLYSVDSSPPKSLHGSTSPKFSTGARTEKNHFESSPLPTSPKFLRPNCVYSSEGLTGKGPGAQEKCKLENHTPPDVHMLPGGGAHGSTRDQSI

With `CC[N+](CC)(CC)CC` [TEA, tetraethylammonium] the “inhibition at saturating TEA concentrations” value [1] was 30%, the “sensitivity to TEA blockade” value [2] was “essentially insensitive” and the inhibition at 100000 µM [3] was about 85%. The maximum inhibition [4] was 90%, the IC50 ([4]; n = 4) was 11.8 ± 0.4 mM and the maximal inhibition [5] was 59%. It also gave an IC50 ([5]; n = 3) of 63.9 ± 5.4 mM, an IC50 [6] of 12.5 ± 3.4 mM and a maximal inhibition [7] of 46%. The IC50 ([7]; n = 4) was 17.3 ± 1.8 mM.
